Measurements taken from US10301288B2, “Kinase inhibitors” (Topivert Pharma Limited, priority 2013, dated 2019).

Assays:
p38 MAPKα = p38 MAPKα (Homo sapiens (Human), UniProt Q16539); experiment: p38 MAPKα enzyme inhibition (FRET, Method 2); format: biochemical
Description: (§1) The enzyme inhibitory activities of compounds disclosed herein are determined by FRET using synthetic peptides labelled with both donor and acceptor fluorophores (Z-LYTE, Invitrogen Ltd., Paisley, UK).
The inhibitory activities of test compounds against the p38 MAPKα isoform (MAPK14: Invitrogen), are evaluated indirectly by determining the level of activation/phosphorylation of the down-stream molecule, MAPKAP-K2. The p38 MAPKα protein (80 ng/mL, 2.5 μL) is mixed with the test compound (2.5 μL of either 4 μg/mL, 0.4 μg/mL, 0.04 μg/mL or 0.004 μg/mL) for 2 hr at RT. […] The mixture is incubated for 1 hr at RT. Development reagent (protease, 5 μL) is added for 1 hr prior to detection in a fluorescence microplate reader (Varioskan® Flash, ThermoFisher Scientific).
(§2) In all cases, the site-specific protease cleaves non-phosphorylated peptide only and eliminates the FRET signal. Phosphorylation levels of each reaction are calculated using the ratio of coumarin emission (donor) over fluorescein emission (acceptor), for which high ratios indicate high phosphorylation and low ratios indicate low phosphorylation levels.

c-Src = c-Src (Homo sapiens (Human), UniProt P12931); experiment: c-Src enzyme inhibition (FRET); format: biochemical
Description: as §1
(§3) The inhibitory activities of compounds of the invention against c-Src and Syk enzymes (Invitrogen), are evaluated in a similar fashion to that described hereinabove. The relevant enzyme (3000 ng/mL or 2000 ng/mL respectively, 2.5 μL) is incubated with the test compound (either 4 μg/mL, 0.4 μg/mL, 0.04 μg/mL, or 0.004 μg/mL, 2.5 μL each) for 2 hr at RT. The FRET peptides (8 μM. 2.5 μL), and appropriate ATP solutions (2.5 μL, 800 μM for c-Src, and 60 μM ATP for Syk) are then added to the enzymes/compound mixtures and incubated for 1 hr. Development reagent (protease, 5 μL) is added for 1 hr prior to detection in a fluorescence microplate reader (Varioskan® Flash, ThermoFisher Scientific).
as §2

Syk = Syk (Homo sapiens (Human), UniProt P43405); experiment: Syk enzyme inhibition (FRET); format: biochemical
Description: as §1, §3, §2

GSK3α = GSK3α (Homo sapiens (Human), UniProt P49840); experiment: GSK 3α enzyme inhibition (FRET, Method 2); format: biochemical
Description: as §1
The inhibitory activities of compounds of the invention against the GSK 3α enzyme isoform (Invitrogen), are evaluated by determining the level of activation/phosphorylation of the target peptide. The GSK3-α protein (500 ng/mL, 2.5 μL) is mixed with the test compound (2.5 μL at either 4 μg/mL, 0.4 μg/mL, 0.04 μg/mL, or 0.004 μg/mL) for 2 hr at RT. The FRET peptide (8 μM, 2.5 μL), which is a phosphorylation target for GSK3α, and ATP (40 μM, 2.5 μL) are then added to the enzyme/compound mixture and the resulting mixture incubated for 1 hr. Development reagent (protease, 5 μL) is added for 1 hr prior to detection in a fluorescence microplate reader (Varioskan® Flash, ThermoFisher Scientific).
as §2

PBMCs = experiment: (b) LPS-induced TNFα/IL-8 release in PBMC cells; format: cell-based; settings: Homo sapiens, read-out: IC50 for Inhibition of Cytokine Release, IL-8
Description: Peripheral blood mononuclear cells (PBMCs) from healthy subjects are separated from whole blood using a density gradient (Lymphoprep, Axis-Shield Healthcare). The PBMCs are seeded in 96 well plates and treated with compounds at the desired concentration for 2 hours before addition of 1 ng/ml LPS (Escherichia Coli 0111:B4 from Sigma Aldrich) for 24 hours under normal tissue culture conditions (37° C., 5% CO2). The supernatant is harvested for determination of IL-8 and TNFα concentrations by sandwich ELISA (Duo-set, R&D systems) and read on the fluorescence microplate reader (Varioskan® Flash, ThermoFisher Scientific).

HT29 cells = experiment: (d) IL-1β-induced IL-8 release in HT29 cells; format: cell-based; settings: Homo sapiens, HT-29, read-out: IC50 for Inhibition of Cytokine Release, IL-8
Description: HT29 cells, a human colon adenocarcinoma cell line, are plated in a 96 well plate (24 hrs) and pre-treated with compounds at the desired concentration for 2 hours before addition of 5 ng/ml of IL-1β (Abeam) for 24 hours. Supernatants are harvested for IL-8 quantification by Sandwich ELISA (Duo-set, R&D System). The IC50 is determined from the dose response curve.

β-catenin = experiment: (m) Accumulation of β catenin in d-U937 cells; format: cell-based, human; settings: Reference Compound at 1 μg/mL defined as 100%
Description: U937 cells, a human monocytic cell line, are differentiated into macrophage-type cells by incubation with PMA; (100 ng/mL) for between 48 to 72 hr. The cells are then incubated with either final concentrations of test compound or vehicle for 18 hr. The induction of β-catenin by the test compounds is stopped by replacing the media with 4% formaldehyde solution. Endogenous peroxide activity is neutralised by incubating with quenching buffer (100 μL, 0.1% sodium azide, 1% H2O2 in PBS with 0.05% Tween-20) for 20 min. The cells are washed with washing buffer (200 μL; PBS containing 0.05% Tween-20) and incubated with blocking solution (200 μL; 5% milk in PBS) for 1 hr, re-washed with washing buffer (200 μL) and then incubated overnight with anti-β-catenin antibody solution (50 μL) in 1% BSA/PBS (BD, Oxford, UK).
After washing with washing buffer (3×200 μL; PBS containing 0.05% Tween-20), cells are incubated with an HRP-conjugated secondary antibody solution (100 μL) in 1% BSA/PBS (Dako, Cambridge, UK) and the resultant signal is determined colourimetrically (OD: 450 nm with a reference wavelength of 655 nm) using TMB substrate (50 μL; R&D Systems, Abingdon, UK). This reaction is stopped by addition of 1N H2SO4 solution (50 μL). Cells are then washed with washing buffer and 2% crystal violet solution (50 μL) is applied for 30 min. After washing with washing buffer (3×200 μL), 1% SDS (100 μL) is added to each well and the plates are shaken lightly for 1 hr prior to measuring the absorbance at 595 nm (Varioskan® Flash, Thermo-Fisher Scientific).
The measured OD450-655 readings are corrected for cell number by dividing the OD450-655 by the OD595 readings.

kinases = experiment: KinomeScan selectivity scores / number of hits; format: binding
Description: These assays may be conducted by DiscoverX (formerly Ambit; San Diego, Calif.). The percentage inhibition produced by incubation with a test compound may be calculated relative to the non-inhibited control.

Chain of GSK3α (P49840 whole entry): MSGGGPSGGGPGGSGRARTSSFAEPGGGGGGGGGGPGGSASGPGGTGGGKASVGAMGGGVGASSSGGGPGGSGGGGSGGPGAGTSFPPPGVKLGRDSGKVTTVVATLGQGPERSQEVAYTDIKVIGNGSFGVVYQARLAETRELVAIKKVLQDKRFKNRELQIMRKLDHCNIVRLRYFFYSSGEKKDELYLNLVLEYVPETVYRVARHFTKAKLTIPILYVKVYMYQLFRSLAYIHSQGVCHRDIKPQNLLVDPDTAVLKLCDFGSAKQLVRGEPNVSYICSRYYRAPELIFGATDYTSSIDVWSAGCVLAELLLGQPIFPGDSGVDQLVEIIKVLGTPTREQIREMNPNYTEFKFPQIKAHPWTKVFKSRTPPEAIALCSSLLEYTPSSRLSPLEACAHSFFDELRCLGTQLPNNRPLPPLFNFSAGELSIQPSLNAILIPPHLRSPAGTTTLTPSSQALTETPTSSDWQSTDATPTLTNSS
Chain of c-Src (P12931 whole entry, looked up): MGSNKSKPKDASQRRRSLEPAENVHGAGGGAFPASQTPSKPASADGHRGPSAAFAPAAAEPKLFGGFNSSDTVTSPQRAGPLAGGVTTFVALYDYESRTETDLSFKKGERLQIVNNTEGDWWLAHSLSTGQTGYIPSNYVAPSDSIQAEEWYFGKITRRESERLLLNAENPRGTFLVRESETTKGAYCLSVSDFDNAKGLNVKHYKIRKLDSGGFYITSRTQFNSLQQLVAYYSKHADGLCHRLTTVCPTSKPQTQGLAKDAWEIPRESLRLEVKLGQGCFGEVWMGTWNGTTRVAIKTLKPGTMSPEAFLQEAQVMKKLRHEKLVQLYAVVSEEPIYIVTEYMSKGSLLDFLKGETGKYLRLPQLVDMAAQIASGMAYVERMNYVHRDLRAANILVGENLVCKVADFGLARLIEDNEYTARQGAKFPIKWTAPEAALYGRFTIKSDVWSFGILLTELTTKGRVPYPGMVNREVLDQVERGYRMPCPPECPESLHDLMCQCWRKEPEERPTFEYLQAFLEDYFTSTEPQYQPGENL
Chain of p38 MAPKα (Q16539 whole entry): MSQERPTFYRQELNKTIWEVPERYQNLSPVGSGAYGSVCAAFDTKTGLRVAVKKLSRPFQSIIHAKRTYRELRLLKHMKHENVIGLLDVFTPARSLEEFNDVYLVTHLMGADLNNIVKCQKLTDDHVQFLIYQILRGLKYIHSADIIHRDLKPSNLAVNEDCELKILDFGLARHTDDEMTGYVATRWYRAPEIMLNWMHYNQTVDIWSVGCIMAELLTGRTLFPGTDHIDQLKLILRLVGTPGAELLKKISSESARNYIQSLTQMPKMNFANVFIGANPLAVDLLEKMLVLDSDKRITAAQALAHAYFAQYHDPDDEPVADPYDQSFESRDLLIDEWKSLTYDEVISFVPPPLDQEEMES

| IC50 (p38 MAPKα) [nM] | IC50 (c-Src) [nM] | IC50 (Syk) [nM] | IC50 (GSK3α) [nM] | IC50 (HT29 cells) [nM] | SMILES | IC50 (PBMCs) [nM] | % β-catenin induction (β-catenin; 1 μg/mL) [%] | % β-catenin induction (β-catenin; 5 μg/mL) [%] | % β-catenin induction (β-catenin; 10 μg/mL) [%] | KinomeScan S(1) number of hits (kinases; 50 nM) | KinomeScan S(10) number of hits (kinases; 50 nM) | KinomeScan S(35) number of hits (kinases; 50 nM) | KinomeScan S(1) number of hits (kinases; 500 nM) | KinomeScan S(10) number of hits (kinases; 500 nM) | KinomeScan S(35) number of hits (kinases; 500 nM) |
| --- | --- | --- | --- | --- | --- | --- | --- | --- | --- | --- | --- | --- | --- | --- | --- |
| 88 | 4 | 20 | 402 | 1.5 | C#Cc1cc(Nc2nccc(Oc3ccc(NC(=O)Nc4cc(C(C)(C)C)nn4-c4cccc(CP(C)(C)=O)c4)c4ccccc34)n2)cc(C(=O)NCCOCCOCCOC)c1 [Example 14, 3-((4-((4-(3-(3-(tert-Butyl)-1-(3-((dimethylphosphoryl)methyl)phenyl)-1H-pyrazol-5-yl)-ureido)naphthalen-1-yl)oxy)pyrimidin-2-yl)amino)-5-ethynyl-N-(2-(2-(2-methoxyethoxy)-ethoxy)ethyl)benzamide] | 1.5 |  |  |  |  |  |  |  |  |  |
| 34 | 18 | 57 | 3200 | 2 | COCCOCCOCCNC(=O)c1cc(Nc2cc(Oc3ccc(NC(=O)Nc4cc(C(C)(C)C)nn4-c4cccc(CP(C)(C)=O)c4)c4ccccc34)ccn2)cc(OC)c1 [Example 15, 3-((4-((4-(3-(3-(tert-Butyl)-1-(3-((dimethylphosphoryl)methyl)phenyl)-1H-pyrazol-5-yl)-ureido)naphthalen-1-yl)oxy)pyridin-2-yl)amino)-5-methoxy-N-(2-(2-(2-methoxyethoxy)-ethoxy)ethyl)benzamide] | 1.2 | 4 | 11 | 27 |  |  |  |  |  |  |
|  | 15 | 27 | 646 |  | COCCOCCOCCNC(=O)c1cc(Nc2nccc(Oc3ccc(NC(=O)Nc4cc(C(C)(C)C)nn4-c4ccc(N(C)C)cc4)c4ccccc34)n2)cc(OC)c1 [Example 16, 3-((4-((4-(3-(3-(tert-Butyl)-1-(4-(dimethylamino)phenyl)-1H-pyrazol-5-yl)ureido)-naphthalen-1-yl)oxy)pyrimidin-2-yl)amino)-5-methoxy-N-(2-(2-(2-methoxyethoxy)-ethoxy)ethyl)benzamide] | 2.7 |  |  |  |  |  |  |  |  |  |
|  |  |  | 12100 |  | C#Cc1cc(Nc2nccc(Oc3ccc(NC(=O)Nc4cc(C(C)(C)C)nn4-c4ccc(OC)cc4C)c4ccccc34)n2)cc(C(=O)NCCOCCOCCOC)c1 [Example 17, 3-((4-((4-(3-(3-(tert-Butyl)-1-(4-methoxy-2-methylphenyl)-1H-pyrazol-5-yl)ureido)-naphthalen-1-yl)oxy)pyrimidin-2-yl)amino)-5-ethynyl-N-(2-(2-(2-methoxyethoxy)-ethoxy)ethyl)benzamide] | 5 |  |  |  |  |  |  |  |  |  |

The remaining lines, values behind:

| SMILES | IC50 (p38 MAPKα) [nM] | IC50 (c-Src) [nM] | IC50 (Syk) [nM] | IC50 (GSK3α) [nM] | IC50 (HT29 cells) [nM] | IC50 (PBMCs) [nM] | % β-catenin induction (β-catenin; 1 μg/mL) [%] | % β-catenin induction (β-catenin; 5 μg/mL) [%] | % β-catenin induction (β-catenin; 10 μg/mL) [%] | KinomeScan S(1) number of hits (kinases; 50 nM) | KinomeScan S(10) number of hits (kinases; 50 nM) | KinomeScan S(35) number of hits (kinases; 50 nM) | KinomeScan S(1) number of hits (kinases; 500 nM) | KinomeScan S(10) number of hits (kinases; 500 nM) | KinomeScan S(35) number of hits (kinases; 500 nM) |
| --- | --- | --- | --- | --- | --- | --- | --- | --- | --- | --- | --- | --- | --- | --- | --- |
| C#Cc1cc(Nc2cc(Oc3ccc(NC(=O)Nc4cc(C(C)(C)C)nn4-c4ccc(N(C)C)cc4)c4ccccc34)ccn2)cc(C(=O)NCCOCCOCCOC)c1 [Example 11, 3-((4-((4-(3-(3-(tert-Butyl)-1-(4-(dimethylamino)phenyl)-1H-pyrazol-5-yl)ureido)-naphthalen-1-yl)oxy)pyridin-2-yl)amino)-5-ethynyl-N-(2-(2-(2-methoxyethoxy)ethoxy)-ethyl)benzamide] | 766 | > 1210 | > 1210 | 12100 | 6.2 | 4.3 |  |  |  |  |  |  |  |  |  |
| C#Cc1cc(Nc2nccc(Oc3ccc(NC(=O)Nc4cc(C(C)(C)C)nn4-c4ccc(C)cc4)c4c3CCCC4)n2)cc(C(=O)NCCOCCOCCOC)c1 [Example 12, 3-((4-((4-(3-(3-(tert-Butyl)-1-(p-tolyl)-1H-pyrazol-5-yl)ureido)-5,6,7,8-tetrahydronaphthalen-1-yl)oxy)pyrimidin-2-yl)amino)-5-ethynyl-N-(2-(2-(2-methoxyethoxy)-ethoxy)ethyl)benzamide] |  |  |  | 12500 | 10.9 | 11.8 |  |  |  |  |  |  |  |  |  |
| C#Cc1cc(Nc2nccc(Oc3ccc(NC(=O)Nc4cc(C(C)(C)C)nn4-c4ccc(OC)cc4OC)c4ccccc34)n2)cc(C(=O)NCCOCCOCCOC)c1 [Example 13, 3-((4-((4-(3-(3-(tert-Butyl)-1-(2,4-dimethoxyphenyl)-1H-pyrazol-5-yl)ureido)naphthalen-1-yl)oxy)pyrimidin-2-yl)amino)-5-ethynyl-N-(2-(2-(2-methoxyethoxy)ethoxy)ethyl)-benzamide] | 370 | 21 | 123 | 2130 | 3.6 | 4.6 | −5 | −2 | −4 |  |  |  |  |  |  |
| COCC(=O)Nc1cc(Oc2ccc(NC(=O)Nc3cc(C(C)(C)C)nn3-c3ccc(C)cc3)c3ccccc23)ccn1 [Reference Compound, N-(4-(4-(3-(3-tert-butyl-1-p-tolyl-1H-pyrazol-5-yl)ureido)naphthalen-1-yloxy)pyridin-2-yl)-2-methoxyacetamide, reference compound] |  |  |  |  |  |  | 100 |  |  | 7 | 32 | 67 | 45 | 105 | 143 |
